The text below walks through data of PubChem BioAssay AID1996.

Structures are written as SMILES. Values after ≈ are worked out from the molar mass of the structure shown.

The conditions of this data set: buffer; pH 7.4; 200.0 µM.
By solubility (kinetic) is commonly meant the concentration staying in solution when a stock, usually in DMSO, is diluted into the medium. Consider `CCN(c1ccccc1)S(=O)(=O)c1ccc(Cl)c(NC(=O)CNC(C)c2ccccc2)c1` (stereo unspecified), for which the kinetic solubility was 3.2 µg/mL (≈ 6.78 µM).
To `O=c1c2ccccc2nc(/C=C/c2cc(Br)ccc2O)n1CCO` belongs 6.1 µg/mL (≈ 15.8 µM); to `Cc1cc(N2CCOCC2)nc2ccc(NC(=S)N3CCCCC3C)cc12` (stereo unspecified), 41.5 µg/mL (≈ 108 µM); to `CCC1CCCCN1CC(=O)Nc1ccc2c(c1)OCCO2` (stereo unspecified), > 45.7 µg/mL.
To `CNC(=O)c1cc(OCC(F)(F)F)ccc1OCC(F)(F)F` belongs 49.6 µg/mL (≈ 150 µM); to `COC(=O)c1cc(S(=O)(=O)Nc2ccc(C)cn2)c[nH]1`, 43.9 µg/mL (≈ 149 µM).
The compound `COc1cccc(N2C(=O)CN(Cc3ccccc3)C2=S)c1` displayed a kinetic solubility of 24.9 µg/mL (≈ 79.7 µM).
To `S=C(NCCc1ccccc1)NCc1cccc(Cl)c1` belongs 13.9 µg/mL (≈ 45.6 µM).
The figure for `CN(C)C(C)(C)/C=C/C(O)(c1ccccc1)c1ccccc1` is 43 µg/mL (≈ 146 µM); for `Br.Cn1c(=N)n(CC(=O)c2ccc(F)cc2)c2ccccc21` it is > 54.6 µg/mL; for `N#CC1(Nc2cccc(Br)c2)C(=O)Nc2ccccc21` (stereo unspecified) it is > 49.2 µg/mL.
The figure for `O=C1CCC(=O)N1c1ccc(-c2nc3sc4c(c3c(=O)o2)CCC4)cc1` is 1 µg/mL (≈ 2.73 µM); for `Oc1ccc2ccccc2c1CNc1ccc(Br)cn1` it is 1.9 µg/mL (≈ 5.77 µM); for `O=C(NC1CCCCCC1)C(=S)NCc1ccccc1` it is 1.6 µg/mL (≈ 5.51 µM).
As for `COc1ccccc1C1C([N+](=O)[O-])=C(N)Oc2c1c(=O)oc1ccccc21` (stereo unspecified), the solubility (kinetic) turned out to be 2.2 µg/mL (≈ 6.01 µM).
To `Nn1c(SCC(=O)Nc2ccc(N3CCOCC3)cc2)nnc1C1CC1` belongs > 56.2 µg/mL.
To `COC(=O)c1ccc(C(=O)N(Cc2ccccc2)c2ccccc2)cc1` belongs 10.7 µg/mL (≈ 31 µM).
The figure for `COc1ccc(C2SCC(=O)N2c2ccc(F)cc2)cc1` (stereo unspecified) is 35.2 µg/mL (≈ 116 µM); for `O=C(CN1C(=O)NC2(CCCCCC2)C1=O)N1CCCCC1` it is > 46.1 µg/mL.
With `CN1CCN(S(=O)(=O)c2cccc(C(=O)Nc3cccc([N+](=O)[O-])c3)c2)CC1`, the solubility (kinetic) came out at 59.7 µg/mL (≈ 148 µM).
The figure for `CC(C)NC(=O)C(=O)Nc1cc2c3c(c1)CCC(=O)N3CCC2` is > 47.3 µg/mL; for `O=S(=O)(Nc1cccc(CCc2ccccn2)c1)c1ccc(Cl)cc1` it is 19.1 µg/mL (≈ 51.2 µM); for `CCOc1ccc(NC(=O)c2cccc(NC(=O)c3ccccc3)c2)cc1` it is 0.8 µg/mL (≈ 2.22 µM).
For `COC(=O)Cn1cnc2scc(-c3ccc(C)cc3)c2c1=O`, the solubility (kinetic) was > 47.2 µg/mL.
Consider `Cc1ccccc1CN(C)CC(=O)Nc1c(C)cccc1C(C)C`, for which the solubility (kinetic) was 12.1 µg/mL (≈ 37.3 µM).
The figure for `COCCNc1nc(-c2ccccc2)nc2c1oc1ccccc12.Cl` is 4.6 µg/mL.
To `Cc1ccc(Cl)cc1NC(=O)c1ccccn1` belongs 6.3 µg/mL (≈ 25.5 µM); to `O=C(CC(=O)c1ccccc1)Nc1ccc(Cl)cc1`, 3.3 µg/mL (≈ 12.1 µM).
As for `CCC1CCCCN1C(=O)COC(=O)c1cccs1` (stereo unspecified), the solubility (kinetic) is > 42.2 µg/mL.
The figure for `Cc1ccc(NC(=O)C(C)N2CCc3ccccc3C2)cc1` (stereo unspecified) is 31.8 µg/mL (≈ 108 µM); for `Cc1ccc2nc(-c3cc(-c4ccccc4)no3)cn2c1` it is 0.3 µg/mL (≈ 1.09 µM); for `Clc1ccc(N=c2ssnc2Cl)nc1` it is 1 µg/mL (≈ 3.79 µM).
Consider `O=C(COC(=O)c1cccc([N+](=O)[O-])c1)NC1CCCC1`, for which the solubility (kinetic) was determined as 32.3 µg/mL (≈ 111 µM).
The figure for `CCOC(=O)COc1nc2c(c(-c3ccco3)c1C#N)CCc1ccccc1-2` is 1.5 µg/mL (≈ 4.01 µM); for `COc1ccc(/C=N/NC(=O)c2cc[n+]([O-])cc2)cc1` it is > 40.7 µg/mL; for `O=C(COC(=O)/C=C/c1ccccc1)NC(=O)NC1CCCCC1` it is 8.8 µg/mL (≈ 26.6 µM).
To `CC1Oc2ccccc2OC1C(=O)Nc1nccs1` (stereo unspecified) belongs 18.1 µg/mL (≈ 65.5 µM); to `CCN(CC)CCNC(=O)c1cc2cc3ccc(OC)cc3nc2o1`, 45.9 µg/mL (≈ 134 µM).
The figure for `CCOC(=O)CNC(=O)c1sc(NC(=O)/C=C/c2ccccc2)nc1C` is 0.3 µg/mL (≈ 0.803 µM).
On to `CS(=O)(=O)N1CCCC(C(=O)Nc2ccc(F)c(F)c2)C1` (stereo unspecified), for which the kinetic solubility is > 47.8 µg/mL.
The figure for `O=C(O)CCCC(=O)Nc1cccc([N+](=O)[O-])c1` is > 37.8 µg/mL; for `Cc1c(OCC(N)=O)ccc2c(-c3ccccc3)cc(=O)oc12` it is 0.9 µg/mL (≈ 2.91 µM).
To `CNS(=O)(=O)c1cccc(C(=O)OCC(=O)Nc2nc(OC)cc(OC)n2)c1` belongs 15 µg/mL (≈ 36.5 µM); to `Cc1cccc(C(=O)Nc2cccc(C(=O)NC3CCCC3)c2)c1`, 23.6 µg/mL (≈ 73.2 µM); to `O=C(Nc1cccc([N+](=O)[O-])c1)c1ccc2nsnc2c1`, 1.9 µg/mL (≈ 6.33 µM).
The figure for `Cc1cccc(NS(=O)(=O)c2ccc(C)c(C(=O)NCc3cccnc3)c2)c1` is > 59.3 µg/mL; for `COc1ccc(C(=O)N2CCc3c([nH]c4ccccc34)C2C(F)(F)F)cc1` (stereo unspecified) it is 1.1 µg/mL (≈ 2.94 µM); for `CCOC(=O)/C(C#N)=C1\CC2CCC1(C)C2(C)C` (stereo unspecified) it is 1.7 µg/mL (≈ 6.87 µM).
Take `CCOC(=O)N1CCN(C(=O)c2ccc(OC)cc2)CC1`: the solubility (kinetic) was > 43.9 µg/mL.
Take `Cc1cnc(NC(=O)C2CCC(C(C)(C)C)CC2)s1` (stereo unspecified): the kinetic solubility is < 0.3 µg/mL.
To `COCC(C)NC(=O)c1cc2cc(OC)ccc2[nH]1` (stereo unspecified) belongs 29.7 µg/mL (≈ 113 µM).
